Assays:
Assay type in all cases: in vivo
[1] = test system: Abutilon theophrasti; assay: Pre-emergence herbicidal action against ABUTH; conditions: visual score after 3 weeks vs untreated controls
Procedure, shortened: (§1)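 Sandy loam pots, seeds covered with soil, then surface-treated with WP or EC formulations at 600–800 l/ha water plus 0.2% wetting agent. Greenhouse, 3 weeks. Percent damage vs untreated controls.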

[2] = test system: Alopecurus myosuroides; assay: Pre-emergence herbicidal action against ALOMY; conditions: visual score after 3 weeks vs untreated controls
Procedure, shortened: as §1

[3] = test system: Amaranthus retroflexus; assay: Pre-emergence herbicidal action against AMARE; conditions: visual score after 3 weeks vs untreated controls
Procedure, shortened: as §1

[4] = test system: Avena fatua; assay: Pre-emergence herbicidal action against AVEFA; conditions: visual score after 3 weeks vs untreated controls
Procedure, shortened: as §1

[5] = test system: Cyperus esculentus; assay: Pre-emergence herbicidal action against CYPES; conditions: 320 g/ha; visual score after 3 weeks vs untreated controls
Procedure, shortened: as §1

[6] = test system: Echinochloa crus-galli; assay: Pre-emergence herbicidal action against ECHCG; conditions: visual score after 3 weeks vs untreated controls
Procedure, shortened: as §1

[7] = test system: Matricaria inodora; assay: Pre-emergence herbicidal action against MATIN; conditions: visual score after 3 weeks vs untreated controls
Procedure, shortened: as §1

[8] = test system: Pharbitis purpurea; assay: Pre-emergence herbicidal action against PHBPU; conditions: 320 g/ha; visual score after 3 weeks vs untreated controls
Procedure, shortened: as §1

[9] = test system: Hordeum murinum; assay: Pre-emergence herbicidal action against HORMU; conditions: visual score after 3 weeks vs untreated controls
Procedure, shortened: as §1

[10] = test system: Lolium rigidum; assay: Pre-emergence herbicidal action against LOLRI; conditions: 320 g/ha
Procedure, shortened: as §1

[11] = test system: Setaria viridis; assay: Pre-emergence herbicidal action against SETVI
Procedure, shortened: as §1

[12] = test system: Stellaria media; assay: Pre-emergence herbicidal action against STEME
Procedure, shortened: as §1

[13] = test system: Veronica persica; assay: Pre-emergence herbicidal action against VERPE; conditions: 320 g/ha
Procedure, shortened: as §1

[14] = test system: Viola tricolor; assay: Pre-emergence herbicidal action against VIOTR
Procedure, shortened: as §1

[15] = test system: Abutilon theophrasti; assay: Post-emergence herbicidal action against ABUTH
Procedure, shortened: (§2)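 Visual % rating (0% = as untreated, 100% = dead) ~3 wk after spraying one-leaf-stage plants grown in sandy loam; WP/EC in water at 600–800 l/ha, 0.2% wetting agent.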

[16] = test system: Alopecurus myosuroides; assay: Post-emergence herbicidal action against ALOMY
Procedure, shortened: as §2

[17] = test system: Amaranthus retroflexus; assay: Post-emergence herbicidal action against AMARE; conditions: visual assessment about 3 weeks after treatment
Procedure, shortened: as §2

[18] = test system: Avena fatua; assay: Post-emergence herbicidal action against AVEFA; conditions: visual assessment about 3 weeks after treatment
Procedure, shortened: as §2

[19] = test system: Cyperus esculentus; assay: Post-emergence herbicidal action against CYPES; conditions: 80 g/ha, visual assessment about 3 weeks after treatment
Procedure, shortened: as §2

[20] = test system: Echinochloa crus-galli; assay: Post-emergence herbicidal action against ECHCG; conditions: visual assessment about 3 weeks after treatment
Procedure, shortened: as §2

[21] = test system: Matricaria inodora; assay: Post-emergence herbicidal action against MATIN; conditions: visual assessment about 3 weeks after treatment
Procedure, shortened: as §2

[22] = test system: Pharbitis purpurea; assay: Post-emergence herbicidal action against PHBPU; conditions: visual assessment about 3 weeks after treatment
Procedure, shortened: as §2

[23] = test system: Hordeum murinum; assay: Post-emergence herbicidal action against HORMU
Procedure, shortened: as §2

[24] = test system: Lolium rigidum; assay: Post-emergence herbicidal action against LOLRI; conditions: 80 g/ha
Method: Seeds of monocotyledonous and dicotyledonous weed and crop plants are laid out in sandy loam soil in wood-fiber pots, covered with soil and cultivated in a greenhouse under good growth conditions. 2 to 3 weeks after sowing, the test plants are treated at the one-leaf stage. The compounds of the invention, formulated in the form of wettable powders (WP) or as emulsion concentrates (EC), are then sprayed onto the green parts of the plants in the form of an aqueous suspension or emulsion at a water application rate equivalent to 600 to 800 l/ha, with addition of 0.2% wetting agent. After the test plants have been left to stand in the greenhouse under optimal growth conditions for about 3 weeks, the action of the preparations is assessed visually in comparison to untreated controls (herbicidal action in percent (%): 100% activity=the plants have died, 0% activity=like control plants). […] The tables below illustrate, in an illustrative manner, the post-emergence herbicidal action of the compounds of the invention, the herbicidal activity being stated in percent.

[25] = test system: Polygonum convolvulus; assay: Post-emergence herbicidal action against POLCO; conditions: 80 g/ha, visual assessment about 3 weeks after treatment
Procedure, shortened: as §2

[26] = test system: Setaria viridis; assay: Post-emergence herbicidal action against SETVI; conditions: visual assessment about 3 weeks after treatment
Procedure, shortened: as §2

[27] = test system: Stellaria media; assay: Post-emergence herbicidal action against STEME; conditions: visual assessment about 3 weeks after treatment
Procedure, shortened: as §2

[28] = test system: Veronica persica; assay: Post-emergence herbicidal action against VERPE; conditions: visual assessment about 3 weeks after treatment
Procedure, shortened: as §2

[29] = test system: Viola tricolor; assay: Post-emergence herbicidal action against VIOTR
Procedure, shortened: as §2

CN(CC1CC1)C(=O)c1c(C(F)(F)F)ccc(C(=O)Nc2nnnn2C)c1Cl [Example 1-126] was tested, and the “Pre-emergence action against ABUTH” value ([1]; 20 g/ha) was 100%, the “Pre-emergence action against ABUTH” value ([1]; 80 g/ha) was 100% and the “Pre-emergence action against ABUTH” value ([1]; Dosage column 320 g/ha (heading prints 3200 g/ha)) was 100%. For the same compound, the “Pre-emergence action against ALOMY” value ([2]; 80 g/ha) was 80%, the “Pre-emergence action against ALOMY” value ([2]; 320 g/ha) was 90% and the “Pre-emergence action against AMARE” value ([3]; 20 g/ha) was 80%. For the same compound, the “Pre-emergence action against AMARE” value ([3]; 80 g/ha) was 90%, the “Pre-emergence action against AMARE” value ([3]; 320 g/ha) was 100% and the “Pre-emergence action against AVEFA” value ([4]; 80 g/ha) was 80%. For the same compound, the “Pre-emergence action against AVEFA” value ([4]; 320 g/ha) was 100%, the “Pre-emergence action against CYPES” value [5] was 90% and the “Pre-emergence action against ECHCG” value ([6]; 80 g/ha) was 90%. The “Pre-emergence action against ECHCG” value ([6]; 320 g/ha) was 100%, the “Pre-emergence action against MATIN” value ([7]; 20 g/ha) was 80% and the “Pre-emergence action against MATIN” value ([7]; 80 g/ha) was 100%. For the same compound, the “Pre-emergence action against MATIN” value ([7]; 320 g/ha) was 100%, the “Pre-emergence action against PHBPU” value [8] was 80% and the “Pre-emergence action against HORMU” value ([9]; 80 g/ha) was 80%. The “Pre-emergence action against HORMU” value ([9]; 320 g/ha) was 100%, the “Pre-emergence action against LOLRI” value [10] was 90% and the “Pre-emergence action against SETVI” value ([11]; 80 g/ha) was 90%. The “Pre-emergence action against SETVI” value ([11]; 320 g/ha) was 100%, the “Pre-emergence action against STEME” value ([12]; 20 g/ha) was 80% and the “Pre-emergence action against STEME” value ([12]; 320 g/ha) was 90%. The “Pre-emergence action against VERPE” value [13] was 90%, the “Pre-emergence action against VIOTR” value ([14]; 80 g/ha) was 100% and the “Pre-emergence action against VIOTR” value ([14]; 320 g/ha) was 100%. The “Post-emergence action against ABUTH” value ([15]; 5 g/ha) was 100%, the “Post-emergence action against ABUTH” value ([15]; 20 g/ha) was 100% and the “Post-emergence action against ABUTH” value ([15]; 80 g/ha) was 100%. For the same compound, the “Post-emergence action against ALOMY” value ([16]; 5 g/ha) was 90%, the “Post-emergence action against ALOMY” value ([16]; 20 g/ha) was 100% and the “Post-emergence action against ALOMY” value ([16]; 80 g/ha) was 100%. For the same compound, the “Post-emergence action against AMARE in %” value ([17]; 5 g/ha) was 100%, the “Post-emergence action against AMARE in %” value ([17]; 20 g/ha) was 100% and the “Post-emergence action against AMARE in %” value ([17]; 80 g/ha) was 100%. The “Post-emergence action against AVEFA in %” value ([18]; 20 g/ha) was 100%, the “Post-emergence action against AVEFA in %” value ([18]; 80 g/ha) was 100% and the “Post-emergence action against CYPES in %” value [19] was 80%. The “Post-emergence action against ECHCG in %” value ([20]; 5 g/ha) was 80%, the “Post-emergence action against ECHCG in %” value ([20]; 20 g/ha) was 100% and the “Post-emergence action against ECHCG in %” value ([20]; 80 g/ha) was 100%. The “Post-emergence action against MATIN in %” value ([21]; 5 g/ha) was 80%, the “Post-emergence action against MATIN in %” value ([21]; 20 g/ha) was 90% and the “Post-emergence action against MATIN in %” value ([21]; 80 g/ha) was 100%. For the same compound, the “Post-emergence action against PHBPU in %” value ([22]; 5 g/ha) was 90%, the “Post-emergence action against PHBPU in %” value ([22]; 20 g/ha) was 90% and the “Post-emergence action against PHBPU in %” value ([22]; 80 g/ha) was 100%. The “Post-emergence action against HORMU in %” value ([23]; 20 g/ha) was 100%, the “Post-emergence action against HORMU in %” value ([23]; 80 g/ha) was 100% and the “Post-emergence action against LOLRI in %” value [24] was 90%. The “Post-emergence action against POLCO in %” value [25] was 80%, the “Post-emergence action against SETVI in %” value ([26]; 5 g/ha) was 100% and the “Post-emergence action against SETVI in %” value ([26]; 20 g/ha) was 100%. For the same compound, the “Post-emergence action against SETVI in %” value ([26]; 80 g/ha) was 100%, the “Post-emergence action against STEME in %” value ([27]; 5 g/ha) was 100% and the “Post-emergence action against STEME in %” value ([27]; 20 g/ha) was 100%. The “Post-emergence action against STEME in %” value ([27]; 80 g/ha) was 100%, the “Post-emergence action against VERPE in %” value ([28]; 20 g/ha) was 80% and the “Post-emergence action against VERPE in %” value ([28]; 80 g/ha) was 80%. For the same compound, the “Post-emergence action against VIOTR in %” value ([29]; 5 g/ha) was 90%, the “Post-emergence action against VIOTR in %” value ([29]; 20 g/ha) was 100% and the “Post-emergence action against VIOTR in %” value ([29]; 80 g/ha) was 100%.

Reference: US12599136B2, “Substituted isophthalic acid diamides and their use as herbicides” (Bayer Aktiengesellschaft, priority 2020, dated 2026)
